According to patent publication US11034702B2, “Thienoisoquinolines and their derivatives for the treatment of cancer” (VALORBEC, SOCIÉTÉ EN COMMANDITE, priority 2016, dated 2021):
“Also recorded” adds a separate entry of the source.

How the values were obtained:
[1] = test system: A549 (lung carcinoma) cells; test: IC50 (viability) in A549 cells; format: cell-based; conditions: Homo sapiens
Description: (§1) 19 variants with different structural modifications have been made. […] In particular, it is shown that C75 causes death in multiple cancer cells with IC50 values in the 100 nM range, including breast cancers (MCF7, BT549), lung cancer (A549), colorectal cancer (HCT116) in addition to HeLa cells (cervical cancer).

[2] = test system: MCF-10A (mammary gland fibrocystic disease) non-cancer cells; test: IC50 (viability) in MCF-10A non-cancer cells; format: cell-based; conditions: Homo sapiens, MCF10A non-cancer cells
Description: as §1

[3] = test system: HeLa cells; test: Mitotic arrest (percentage of cells in mitosis) in HeLa cells; format: cell-based, human
Description: (§2) There were more rounded mitotic cells after C75 treatment in comparison to the control. FIG. 1B) is a line graph showing the percentage of HeLa and HFF1 cells in mitosis after treatment with various concentrations of C75 for 8 hours. The bars indicate standard deviation. FIG. 1C) is a series of images showing cells that were fixed and co-stained for tubulin (microtubules) and DAPI (DNA). Treatment of HeLa cells with 300 nM C75 caused the mitotic spindles to be disorganized, while they were not affected in HFF1 cells. […] The scale bar for the cells is 10 μm. FIG. 1D) is a cartoon schematic showing the key features of a metaphase cell.
(§3) FIG. 2A) is a line graph showing the percentage of HCT116 (p53−/−) cells, A549 cells, HeLa cells and H1299 cells in mitosis after treatment with various concentrations of C75 for one population doubling time. All of the cell lines show an increase in the proportion of mitotic cells after treatment with 200 nM C75. The bars indicate standard deviation. […] While the mitotic spindles were not dramatically altered by C75 in HFF1 cells, they were monopolar (as shown) or fragmented in the other cell types. […] The mitotic spindles were more strongly fragmented after C75 treatment in these cells vs. the cells in FIG. 2B). […] While mitotic spindles recovered bipolarity after removing nocodazole, they remained multipolar after removing C75. FIG. 2F) is a series of time-lapse images of a live HeLa cell expressing GFP:tubulin after treatment with C75 as shown in 2D) and 2E). The scale bar for all cells is 10 μm. FIG. 2G) is a schematic showing the putative target for C75. Healthy cells have two centrosomes that separate and form a bipolar spindle, while cancer cells have aberrant centrosomes that cluster to form ‘pseudo’ bipolar spindles, and C75 may target this process and their integrity.
FIG. 3A) is a line graph showing the percentage of mitotic HeLa or HFF1 cells treated with a range of paclitaxel (Taxol™; tubulin-targeting drug) concentrations+/−C75 as indicated. The bars indicate standard deviation. […]

[4] = test system: HCT116 (p53-/-) cells; test: Mitotic arrest (percentage of cells in mitosis) in HCT116 cells; format: cell-based; conditions: HCT116, within one population doubling time
Description: as §3, with “Healthy cells have two centrosomes that separate and form a bipolar spindle, while cancer cells have aberrant centrosomes that cluster to form ‘pseudo’ bipolar spindles, and C75 may target this process and their integrity.” left out
(§4) C75 was also tested for efficacy in different cancer cell lines. […] To further assess the role of C75 in affecting centrosomes, HeLa cells were treated with C75 for a short period of time (5 minutes), then C75 was removed and the cells were analyzed for spindle phenotypes (schematic in FIG. 2D). […]

[5] = test system: HeLa cells; test: Mitotic spindle / centrosome phenotype in HeLa cells (tubulin and DAPI staining, live imaging); format: cell-based, human
Description: as §2, §3
FIG. 3A) is a line graph showing the percentage of mitotic HeLa or HFF1 cells treated with a range of paclitaxel (Taxol™; tubulin-targeting drug) concentrations+/−C75 as indicated. The bars indicate standard deviation. FIG. 3B) is a series of bar graphs showing the proportion of HCT116 cells that have monopolar spindles, bipolar spindles with aligned chromosomes, bipolar spindles with misaligned chromosomes and multipolar/fragmented spindles after treatments as shown. Treatments include DMSO (control), varying concentrations of paclitaxel and/or varying concentrations of C75 after 7 hours. While treatment of HCT116 cells with 2.5 nM paclitaxel caused a threshold of mitotic spindle phenotypes, adding increasing concentrations of C75 in combination with 2.5 nM paclitaxel caused the phenotypes to progressively worsen. FIG. 3C) is bar graph showing the average distance between centrosome fragments in HCT116 cells after treatments as shown. While centrosome fragments moved closer together with increased concentrations of paclitaxel, they moved further apart with increased concentrations of C75. […] FIG. 3E) is a line graph showing the percentage of mitotic HeLa or HFF1 cells treated with a range of nocodazole concentrations+/−C75 as indicated. The bars indicate standard deviation. FIG. 3F) is a series of images showing fixed HeLa cells after treatment with C75+/− nocodazole co-stained for tubulin, γ-tubulin and DNA (DAPI). […] Adding nocodazole to cells treated with 300 nM C75 caused mitotic spindle phenotypes to worsen and appear more similar to those after treatment with 600 nM C75. The scale bar for all cells is 10 μm. FIG. 3G) is a bar graph showing the percentage of phenotypes observed for metaphase HeLa cells treated with nocodazole or C75, or both for 20 minutes (n>15 per treatment).
Spindle fragmentation only occurred after extensive microtubule depolymerization in colchicine-treated cells, while the spindle poles fragmented prior to changes in microtubules after C75 treatment. The scale bar for all cells is 10 μm.
C75 was further tested and found to cause mitotic arrest in HeLa cells. […]

[6] = test system: H1299 cells; test: Mitotic spindle phenotype in H1299 cells; format: cell-based, human; conditions: H1299, 300 nM, 6-8 hours
Description: as §3, with “Healthy cells have two centrosomes that separate and form a bipolar spindle, while cancer cells have aberrant centrosomes that cluster to form ‘pseudo’ bipolar spindles, and C75 may target this process and their integrity.” left out
as §4

[7] = test system: MCF-10A cells; test: Mitotic spindle phenotype in MCF-10A cells; format: cell-based; conditions: 300 nM, 6-8 hours
Description: as §3, with “Healthy cells have two centrosomes that separate and form a bipolar spindle, while cancer cells have aberrant centrosomes that cluster to form ‘pseudo’ bipolar spindles, and C75 may target this process and their integrity.” left out
as §4

[8] = test system: MCF-7 cells; test: Mitotic spindle phenotype in MCF-7 cells; format: cell-based, human; conditions: MCF-7, 300 nM, 6-8 hours
Description: as §3, with “Healthy cells have two centrosomes that separate and form a bipolar spindle, while cancer cells have aberrant centrosomes that cluster to form ‘pseudo’ bipolar spindles, and C75 may target this process and their integrity.” left out
as §4

[9] = test system: BT-549 cells; test: Mitotic spindle phenotype in BT-549 cells; format: cell-based, human; conditions: BT-549, 300 nM, 6-8 hours
Description: as §3, with “Healthy cells have two centrosomes that separate and form a bipolar spindle, while cancer cells have aberrant centrosomes that cluster to form ‘pseudo’ bipolar spindles, and C75 may target this process and their integrity.” left out
as §4

[10] = test system: A549 cells; test: Mitotic spindle phenotype in A549 cells; format: cell-based, human; conditions: A549, 300 nM, 6-8 hours
Description: as §3, with “Healthy cells have two centrosomes that separate and form a bipolar spindle, while cancer cells have aberrant centrosomes that cluster to form ‘pseudo’ bipolar spindles, and C75 may target this process and their integrity.” left out
as §4

In the case of `COc1ccc(S(=O)(=O)N2Cc3ccccc3-c3sc(Br)cc32)cc1` [Compound C75], the IC50 [1] is reported as 109 nM, the IC50 [2] is reported as 309 nM and the “effect of C75 on selectivity of paclitaxel and nocodazole” value ([3]; HeLa vs. HFF1 cells, percentage of mitotic cells, tubulin drug +/- C75) is reported as “enhances the selectivity”. The “concentration causing mitotic arrest” value ([3]; HeLa, within one population doubling time) was 100 to 200 nM, the “selectivity of mitotic arrest, HeLa vs. HFF1” value ([3]; nanomolar concentrations, 8 hours) was “selectively causes mitotic arrest” and the “concentration causing mitotic arrest” value [4] was 100 to 200 nM. The mitotic spindle phenotype ([5]; HeLa, 300 nM) was “spindle organization was perturbed; also recorded: most of the spindles were severely fragmented”, the mitotic spindle phenotype ([5]; HeLa, 750 nM) was “Centrosomes were fragmented or declustered and microtubules were completely absent; also recorded: complete fragmentation of the mitotic spindles” and the “spindle phenotype at lower concentrations” value ([5]; HeLa, 8 hours, 30 nM colchicine or 300 nM C75) was “disrupted spindle poles”. The “spindle phenotype at higher concentrations” value ([5]; HeLa, 8 hours, 40 or 50 nM colchicine, 400 or 500 nM C75) was “spindle fragmentation prior to extensive loss of microtubules”, the “time after exposure until centrosomes fragmented or declustered and microtubules collapsed” value ([5]; live imaging, HeLa GFP:tubulin) was 4 to 6 min and the “time until microtubule polymers grew again” value ([5]; live imaging, HeLa, after wash-out, spindles tri- or multipolar) was 20 to 30 min. For the same compound, the “spindle phenotype after drug wash-out” value ([5]; metaphase HeLa, 5 minutes treatment, washed out, imaged after 40 minutes) was “tri- or multipolar spindles formed”, the “spindle phenotype, drugs alone vs. together” value ([5]; metaphase HeLa, nocodazole or C75 or both, 20 minutes) was “disorganized and/or fragmented mitotic spindles” and the mitotic spindle phenotype [6] was “mix of monopolar, bipolar and multipolar spindles”. For the same compound, the mitotic spindle phenotype [7] was “mix of monopolar, bipolar and multipolar spindles”, the mitotic spindle phenotype [8] was “mix of monopolar, bipolar and multipolar spindles” and the mitotic spindle phenotype [9] was “most of the spindles were severely fragmented”. The mitotic spindle phenotype [10] was “most of the spindles were severely fragmented”.
